Literature values as cited in patent publication US9248119B2, “Modified release dosage forms of xanthine oxidoreductase inhibitor or xanthine oxidase inhibitors” (Takeda Pharmaceuticals U.S.A., Inc., priority 2010, dated 2016).

Columns and labels:
[1] = tested on: renal injury and hypertension associated with hyperuricemia; details: Mazzali M, et al.; cited from earlier work
xanthine oxidoreductase = details: cited from earlier work

Compound	protection against renal injury and hypertension associated with hyperuricemia [1]	inhibition of xanthine oxidoreductase activity (xanthine oxidoreductase)
CCc1oc2ccccc2c1C(=O)c1cc(I)c(O)c(I)c1 [Benziodarone]	lower	does not inhibit
Oc1ncnc2[nH]ncc12 [Allopurinol]	prevent the renal injury and hypertension	–
